Experimental data: ChEMBL document CHEMBL3046868, “Synthesis and biological activities of 4-trifluoromethylindole-3-acetic acid: a new fluorinated indole auxin” (2008)
Active and inactive are the calls of the source. The rule behind the calls is not given here.

Experiments:
Vigna mungo [1] = experiment: Induction of callus formation on Vigna mungo (black gram) seedlings at > 3 x 10^-3 M after 3 days; type: functional, organism-based
[2] = system: Brassica rapa subsp. pekinensis; experiment: Growth inhibition of Brassica rapa subsp. pekinensis (Chinese cabbage) hypocotyl at 1 x 10^-7 to 1 x 10^-4 M; type: functional
Vigna mungo [3] = experiment: Enhancement of hypocotyl swelling in intact Vigna mungo (black gram) seedlings at 3 x 10^-4 M; type: functional, organism-based
Vigna mungo [4] = experiment: Enhancement of lateral root formation in intact Vigna mungo (black gram) seedlings at 3 x 10^-4 M; type: functional, organism-based
[5] = system: Brassica rapa subsp. pekinensis; experiment: Ratio of IAA activity to compound activity for growth inhibition of Brassica rapa subsp. pekinensis (Chinese cabbage) hypocotyl at 1 x 10^-7 to 1 x 10^-4 M; type: functional
Vigna mungo [6] = experiment: Root formation-promoting activity in Vigna mungo (black gram) cuttings at 1 x 10^-4 M relative to IBA (reference value: 35 +/- 8%); type: functional
Vigna mungo [7] = experiment: Ratio of compound activity to IBA activity for root formation-promoting activity in Vigna mungo (black gram) cuttings at 1 x 10^-4 M; type: functional
Vigna mungo [8] = experiment: Enhancement of hypocotyl swelling in intact Vigna mungo (black gram) seedlings at 1 x 10^-4 M; type: functional, organism-based
Vigna mungo [9] = experiment: Enhancement of lateral root formation in intact Vigna mungo (black gram) seedlings at 1 x 10^-4 M; type: functional, organism-based
Vigna mungo [10] = experiment: Induction of callus formation on Vigna mungo (black gram) seedlings at 3 x 10^-5 M after 3 days; type: functional, organism-based
Vigna mungo [11] = experiment: Enhancement of lateral root formation in intact Vigna mungo (black gram) seedlings at 1 x 10^-6 M; type: functional, organism-based
[12] = system: Brassica rapa subsp. pekinensis; experiment: Relative growth inhibitory activity of Brassica rapa subsp. pekinensis (Chinese cabbage) hypocotyl at 1 x 10^-7 to 1 x 10^-4 M
Vigna mungo [13] = experiment: Enhancement of hypocotyl swelling in intact Vigna mungo (black gram) seedlings at 1 x 10^-6 M; type: functional, organism-based
Vigna mungo [14] = experiment: Enhancement of hypocotyl swelling in intact Vigna mungo (black gram) seedlings at 3 x 10^-6 M; type: functional, organism-based
Vigna mungo [15] = experiment: Enhancement of lateral root formation in intact Vigna mungo (black gram) seedlings at 3 x 10^-6 M; type: functional, organism-based

O=C(O)Cc1c[nH]c2cccc(C(F)(F)F)c12
Activity (Vigna mungo [1]): Active
growth inhibition (GI) [2]: Active
Activity (Vigna mungo [3]): Active
Activity (Vigna mungo [4]): Active
Ratio [5]: 6
Activity (Vigna mungo [6]): 156%
Ratio (Vigna mungo [7]): 1.5

O=C(O)CCCc1c[nH]c2ccccc12
Activity (Vigna mungo [6]): 100%

O=C(O)Cc1c[nH]c2ccccc12 [INDOLE-3-ACETIC ACID]
Activity (Vigna mungo [6]): 36%
Activity (Vigna mungo [8]): Active
Activity (Vigna mungo [9]): Active

O=C(O)Cc1c[nH]c2cccc(Cl)c12
Activity (Vigna mungo [10]): Active
Activity (Vigna mungo [6]): 384%
Activity (Vigna mungo [11]): Active
relative activity (%) [12]: 6%
Activity (Vigna mungo [13]): Active

Cc1cccc2[nH]cc(CC(=O)O)c12
Activity (Vigna mungo [10]): Active
Activity (Vigna mungo [6]): 70%
Activity (Vigna mungo [14]): Active
relative activity (%) [12]: 40%
Activity (Vigna mungo [15]): Active
